# Assay results reported in ChEMBL document CHEMBL1152288, “Characterization of thien-2-yl 1S,2R-milnacipran analogues as potent norepinephrine/serotonin transporter inhibitors for the treatment of neuropathic pain” (J Med Chem, 2008).
# Key:
# [1] = Lipophilicity, log D of the compound; type: physicochemical; conditions: octanol/water
# [2] = Oral bioavailability in human; type: ADME, organism-based; conditions: in vivo
# [3] = Drug excretion in human urine; type: ADME; conditions: read-out: Activity
# Transporter [4] = target: T1, Transporter (Rattus norvegicus, UniProt Q63380)
# Description: Inhibition of radiolabeled noradrenaline uptake from rat brain NET
# [5] = target: T2, Sodium-dependent serotonin transporter (Rattus norvegicus, UniProt P31652); assay: Inhibition of radiolabeled serotonin uptake from rat brain SERT
# [6] = target: T2, Sodium-dependent serotonin transporter; type: cell-based, HEK293
# [7] = Partition coefficient, log P of the compound; type: physicochemical; conditions: octanol/water
# [8] = Metabolic stability in human liver microsomes assessed as systemic clearance at 1 uM after 15 mins by LC-MS/MS analysis; type: ADME, Microsome
# [9] = Metabolic stability in rat liver microsomes assessed as systemic clearance at 1 uM after 15 mins by LC-MS/MS analysis; type: ADME, Microsome
# [10] = target: Sodium-dependent dopamine transporter (Rattus norvegicus, UniProt P23977); assay: biochemical
# Description: Displacement of 3,4-[ring-2,5,6-3H]dihydroxyphenylethylamine from rat synaptosomal DAT expressed in HEK293 cells by microplate scintillation counter
# [11] = Cmax in Fischer 344 rat at 50 mg/kg, po; type: ADME, organism-based; parameters: dose 50 mg/kg, route oral; conditions: in vivo
# [12] = Apparent elimination half life in Fischer 344 rat at 50 mg/kg, po; type: ADME, organism-based; parameters: dose 50 mg/kg, route oral; conditions: in vivo, read-out: beta t1/2 (converted)
# Rattus norvegicus [13] = assay: AUC in Fischer 344 rat at 50 mg/kg, po; type: ADME, organism-based, Plasma; parameters: dose 50 mg/kg, route oral; conditions: in vivo
# in vitro = conditions: human, Caco-2
# Description: Apparent permeability from apical to basolateral side of the human Caco-2 cells
# [14] = Tmax in Fischer 344 rat at 50 mg/kg, po; type: ADME, organism-based; parameters: dose 50 mg/kg, route oral; conditions: in vivo
# Rattus norvegicus [15] = assay: Oral bioavailability in Fischer 344 rat at 50 mg/kg; type: ADME, organism-based; conditions: in vivo
# [16] = target: Voltage-gated inwardly rectifying potassium channel KCNH2 (Homo sapiens, UniProt Q12809)
# Description: Inhibition of human ERG expressed in HEK293 cells by patch-clamp method
# [17] = Apparent elimination half life in Sprague-Dawley rat at 30 mg/kg, po; type: ADME, organism-based; parameters: dose 30 mg/kg, route oral; conditions: in vivo, read-out: beta t1/2 (converted)
# [18] = AUC in Sprague-Dawley rat at 30 mg/kg, po; type: ADME, organism-based; parameters: dose 30 mg/kg, route oral; conditions: plasma
# [19] = target: Sodium-dependent dopamine transporter (Homo sapiens, UniProt Q01959); assay: biochemical
# Description: Displacement of 3,4-[ring-2,5,6-3H]dihydroxyphenylethylamine from human cloned DAT expressed in HEK293 cells by microplate scintillation counter
# Rattus norvegicus [20] = assay: Antinociceptive activity in CD rat assessed as reduction in number of hind paw flinching at 60 mg/kg, po by formalin test; type: functional; parameters: scale not given: the % may be the effect or the level left
# [21] = target: Sodium-dependent serotonin transporter (Homo sapiens, UniProt P31645); assay: biochemical
# Description: Displacement of [alpha,beta-3H(N)]-5-hydroxytryptamine from human cloned SERT expressed in HEK293 cells by microplate scintillation counter
# [22] = Tmax in Sprague-Dawley rat at 30 mg/kg, po; type: ADME, organism-based; parameters: dose 30 mg/kg, route oral; conditions: in vivo
# [23] = Volume of distribution at steady state in Sprague-Dawley rat at 5 mg/kg, iv; type: ADME, organism-based; parameters: dose 5 mg/kg, route intravenous; conditions: in vivo, read-out: Vdss
# [24] = Bioavailability in Sprague-Dawley rat at 5 mg/kg, iv; type: ADME, organism-based; conditions: in vivo
# [25] = Volume of distribution in Sprague-Dawley rat at 5 mg/kg, iv; type: ADME, organism-based; parameters: dose 5 mg/kg, route intravenous; conditions: in vivo
# [26] = Plasma clearance in Sprague-Dawley rat at 5 mg/kg, iv; type: ADME, organism-based; parameters: dose 5 mg/kg, route intravenous
# [27] = Cmax in Sprague-Dawley rat at 30 mg/kg, po; type: ADME, organism-based; parameters: dose 30 mg/kg, route oral; conditions: in vivo
# [28] = Renal clearance in Sprague-Dawley rat at 5 mg/kg, iv; type: ADME, organism-based, Kidney; parameters: dose 5 mg/kg, route intravenous; conditions: in vivo, read-out: CL_renal
# [29] = Drug excretion in Sprague-Dawley rat urine at 5 mg/kg, iv; type: ADME, organism-based; parameters: dose 5 mg/kg, route intravenous; conditions: read-out: Activity
# [30] = Ratio of drug level in brain to plasma in Sprague-Dawley rat at 30 mg/kg, po after 1 hr; type: ADME, organism-based; parameters: dose 30 mg/kg, route oral
# [31] = Drug level in Sprague-Dawley rat brain at 30 mg/kg, po after 4 hrs; type: ADME, organism-based; parameters: dose 30 mg/kg, route oral; conditions: read-out: Drug uptake
# [32] = target: Sodium-dependent noradrenaline transporter (Homo sapiens, UniProt P23975); assay: biochemical
# Description: Displacement of Levo[ring-2,5,6-3H]norepinephrine from human cloned NET expressed in HEK293 cells by microplate scintillation counter
# [33] = Drug level in Sprague-Dawley rat brain at 30 mg/kg, po after 1 hr; type: ADME, organism-based; parameters: dose 30 mg/kg, route oral; conditions: read-out: Drug uptake
# [34] = Half life in Sprague-Dawley rat at 5 mg/kg, iv; type: ADME, organism-based; parameters: dose 5 mg/kg, route intravenous; conditions: in vivo
# Cytochrome P450 2D6 = Cytochrome P450 2D6 (Homo sapiens, UniProt P10635); assay: Inhibition of CYP2D6; type: ADME
# [35] = AUC in Sprague-Dawley rat at 5 mg/kg, iv; type: ADME, organism-based; parameters: dose 5 mg/kg, route intravenous; conditions: plasma
# [36] = Mean residence time in Sprague-Dawley rat at 5 mg/kg, iv; type: ADME, organism-based; parameters: dose 5 mg/kg, route intravenous; conditions: in vivo
# [37] = Ratio of drug level in brain to plasma in Sprague-Dawley rat at 30 mg/kg, po after 4 hrs; type: ADME, organism-based; parameters: dose 30 mg/kg, route oral
# Transporter [38] = target: T1, Transporter; assay: biochemical
# Description: Displacement of Levo[ring-2,5,6-3H]norepinephrine from rat synaptosomal NET expressed in HEK293 cells by microplate scintillation counter
# [39] = Apparent oral clearance in Sprague-Dawley rat at 30 mg/kg, po; type: ADME, organism-based; parameters: dose 30 mg/kg, route oral; conditions: in vivo
# Rattus norvegicus [40] = assay: Reversal of pin-prick-induced neuropathic mechanical hyperalgesia in Harlan Sprague-Dawley rat sciatic nerve ligation model at 30 mg/kg, po; type: functional
# [41] = Plasma clearance in monkey at 5 mg/kg, iv or 30 mg/kg, po; type: ADME, organism-based, Macaca mulatta; conditions: rhesus monkey
# [42] = Tmax in Beagle dog at 5 mg/kg, iv or 30 mg/kg, po; type: ADME, organism-based, Canis lupus familiaris; conditions: in vivo
# [43] = AUC in Beagle dog at 5 mg/kg, iv or 30 mg/kg, po; type: ADME, organism-based, Canis lupus familiaris; conditions: plasma
# [44] = Cmax in monkey at 5 mg/kg, iv or 30 mg/kg, po; type: ADME, organism-based, Macaca mulatta; conditions: rhesus monkey, in vivo
# [45] = Plasma clearance in Beagle dog at 5 mg/kg, iv or 30 mg/kg, po; type: ADME, organism-based, Canis lupus familiaris
# [46] = Renal clearance in Beagle dog at 5 mg/kg, iv or 30 mg/kg, po; type: ADME, organism-based, Canis lupus familiaris, Kidney; conditions: in vivo, read-out: CL_renal
# [47] = Bioavailability in Beagle dog at 5 mg/kg, iv or 30 mg/kg, po; type: ADME, organism-based, Canis lupus familiaris; conditions: in vivo
# [48] = Renal clearance in monkey at 5 mg/kg, iv or 30 mg/kg, po; type: ADME, organism-based, Macaca mulatta, Kidney; conditions: rhesus monkey, in vivo; read-out: CL_renal
# [49] = Cmax in Beagle dog at 5 mg/kg, iv or 30 mg/kg, po; type: ADME, organism-based, Canis lupus familiaris; conditions: in vivo
# [50] = Volume of distribution at steady state in monkey at 5 mg/kg, iv or 30 mg/kg, po; type: ADME, organism-based, Macaca mulatta; conditions: rhesus monkey, in vivo, read-out: Vdss
# [51] = Volume of distribution at steady state in Beagle dog at 5 mg/kg, iv or 30 mg/kg, po; type: ADME, organism-based, Canis lupus familiaris; conditions: in vivo, read-out: Vdss
# [52] = Half life in Beagle dog at 5 mg/kg, iv or 30 mg/kg, po; type: ADME, organism-based, Canis lupus familiaris; conditions: in vivo
# [53] = Bioavailability in monkey at 5 mg/kg, iv or 30 mg/kg, po; type: ADME, organism-based, Macaca mulatta; conditions: rhesus monkey, in vivo
# [54] = AUC in monkey at 5 mg/kg, iv or 30 mg/kg, po; type: ADME, organism-based, Macaca mulatta; conditions: rhesus monkey, plasma
# [55] = Half life in monkey at 5 mg/kg, iv or 30 mg/kg, po; type: ADME, organism-based, Macaca mulatta; conditions: rhesus monkey, in vivo
# [56] = Tmax in monkey at 5 mg/kg, iv or 30 mg/kg, po; type: ADME, organism-based, Macaca mulatta; conditions: rhesus monkey, in vivo
# Description for physchem: Dissociation constant, pKa of the compound
# Sequence of Sodium-dependent dopamine transporter (Rattus norvegicus, UniProt P23977) (P23977 whole entry): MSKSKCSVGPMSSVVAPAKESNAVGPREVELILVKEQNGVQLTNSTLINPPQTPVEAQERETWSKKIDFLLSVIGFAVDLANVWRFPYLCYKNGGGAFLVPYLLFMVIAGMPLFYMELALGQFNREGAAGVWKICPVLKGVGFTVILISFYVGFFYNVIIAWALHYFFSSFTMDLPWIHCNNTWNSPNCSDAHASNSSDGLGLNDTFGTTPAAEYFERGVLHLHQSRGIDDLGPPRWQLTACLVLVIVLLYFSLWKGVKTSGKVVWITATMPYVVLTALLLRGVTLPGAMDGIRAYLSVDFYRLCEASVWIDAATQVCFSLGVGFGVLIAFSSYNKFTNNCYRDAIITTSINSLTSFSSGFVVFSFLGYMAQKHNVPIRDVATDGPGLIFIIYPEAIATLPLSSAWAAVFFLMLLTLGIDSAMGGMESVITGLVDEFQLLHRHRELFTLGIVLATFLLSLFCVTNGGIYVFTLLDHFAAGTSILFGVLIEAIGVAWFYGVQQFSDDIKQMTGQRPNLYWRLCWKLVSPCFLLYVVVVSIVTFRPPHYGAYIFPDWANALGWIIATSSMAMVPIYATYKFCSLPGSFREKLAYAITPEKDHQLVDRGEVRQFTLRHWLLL
# T1 sequence (Q63380 whole entry): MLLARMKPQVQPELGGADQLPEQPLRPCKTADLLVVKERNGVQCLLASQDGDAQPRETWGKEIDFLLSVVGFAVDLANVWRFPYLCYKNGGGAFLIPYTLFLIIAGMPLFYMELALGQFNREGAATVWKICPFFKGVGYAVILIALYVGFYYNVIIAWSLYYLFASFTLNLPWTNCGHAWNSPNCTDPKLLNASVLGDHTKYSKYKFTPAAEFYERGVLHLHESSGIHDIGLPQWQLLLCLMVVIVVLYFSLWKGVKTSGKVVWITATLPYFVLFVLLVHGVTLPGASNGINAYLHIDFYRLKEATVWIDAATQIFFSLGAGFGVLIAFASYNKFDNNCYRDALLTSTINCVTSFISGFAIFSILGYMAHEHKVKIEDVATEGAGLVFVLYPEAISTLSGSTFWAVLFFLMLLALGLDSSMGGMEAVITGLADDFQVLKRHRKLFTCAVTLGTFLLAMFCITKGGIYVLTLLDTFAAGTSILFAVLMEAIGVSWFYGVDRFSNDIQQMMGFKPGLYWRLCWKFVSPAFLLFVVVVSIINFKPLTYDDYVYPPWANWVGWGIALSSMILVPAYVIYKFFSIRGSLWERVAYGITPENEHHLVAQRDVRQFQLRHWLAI
# T2 sequence (P31652 whole entry): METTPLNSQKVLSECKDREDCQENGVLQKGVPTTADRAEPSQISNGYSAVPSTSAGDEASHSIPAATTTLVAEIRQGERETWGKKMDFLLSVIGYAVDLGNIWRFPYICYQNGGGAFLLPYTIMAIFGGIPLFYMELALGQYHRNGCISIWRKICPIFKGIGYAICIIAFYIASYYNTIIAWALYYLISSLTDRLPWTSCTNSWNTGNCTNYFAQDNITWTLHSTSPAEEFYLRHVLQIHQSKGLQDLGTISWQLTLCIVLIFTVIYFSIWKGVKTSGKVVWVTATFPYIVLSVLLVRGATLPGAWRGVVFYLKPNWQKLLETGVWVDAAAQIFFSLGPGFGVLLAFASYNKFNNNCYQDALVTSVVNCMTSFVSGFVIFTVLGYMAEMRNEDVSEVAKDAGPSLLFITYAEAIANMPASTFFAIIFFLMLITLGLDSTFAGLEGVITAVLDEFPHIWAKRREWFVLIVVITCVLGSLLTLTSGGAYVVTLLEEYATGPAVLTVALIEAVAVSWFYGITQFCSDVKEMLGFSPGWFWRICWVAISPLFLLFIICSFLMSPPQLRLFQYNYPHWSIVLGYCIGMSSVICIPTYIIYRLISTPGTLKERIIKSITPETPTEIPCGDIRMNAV
# Sequence of Sodium-dependent dopamine transporter (Homo sapiens, UniProt Q01959) (Q01959 whole entry): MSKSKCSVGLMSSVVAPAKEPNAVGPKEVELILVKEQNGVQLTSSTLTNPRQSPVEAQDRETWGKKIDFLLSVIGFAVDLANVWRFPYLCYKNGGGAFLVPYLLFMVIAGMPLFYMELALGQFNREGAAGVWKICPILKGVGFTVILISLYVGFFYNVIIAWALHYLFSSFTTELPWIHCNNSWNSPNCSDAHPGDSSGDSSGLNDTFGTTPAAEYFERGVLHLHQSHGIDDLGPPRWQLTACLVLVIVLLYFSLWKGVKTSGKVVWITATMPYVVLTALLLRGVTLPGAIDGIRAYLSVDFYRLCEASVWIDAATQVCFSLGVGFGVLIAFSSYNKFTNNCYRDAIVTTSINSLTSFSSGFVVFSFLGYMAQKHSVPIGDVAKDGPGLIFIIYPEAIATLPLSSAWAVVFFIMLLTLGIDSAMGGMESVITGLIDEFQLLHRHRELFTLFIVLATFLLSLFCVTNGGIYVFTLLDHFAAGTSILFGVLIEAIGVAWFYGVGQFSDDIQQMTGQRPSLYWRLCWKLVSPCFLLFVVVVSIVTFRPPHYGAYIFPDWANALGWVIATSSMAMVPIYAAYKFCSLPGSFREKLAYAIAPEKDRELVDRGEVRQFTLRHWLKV
# Sequence of Cytochrome P450 2D6 (P10635 whole entry): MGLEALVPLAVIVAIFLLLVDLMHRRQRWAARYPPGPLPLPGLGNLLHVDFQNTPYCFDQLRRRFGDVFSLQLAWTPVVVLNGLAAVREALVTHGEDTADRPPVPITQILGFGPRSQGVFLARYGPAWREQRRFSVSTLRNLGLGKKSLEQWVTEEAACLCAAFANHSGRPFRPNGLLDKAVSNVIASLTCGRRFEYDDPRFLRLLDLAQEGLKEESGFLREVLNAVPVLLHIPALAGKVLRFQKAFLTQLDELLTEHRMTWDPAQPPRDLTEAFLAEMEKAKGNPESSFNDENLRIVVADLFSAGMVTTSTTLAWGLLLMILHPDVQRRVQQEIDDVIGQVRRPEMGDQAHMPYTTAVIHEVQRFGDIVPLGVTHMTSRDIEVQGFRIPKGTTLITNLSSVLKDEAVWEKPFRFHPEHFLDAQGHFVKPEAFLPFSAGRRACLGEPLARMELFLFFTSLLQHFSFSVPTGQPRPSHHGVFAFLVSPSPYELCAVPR
# Sequence of Sodium-dependent noradrenaline transporter (P23975 whole entry): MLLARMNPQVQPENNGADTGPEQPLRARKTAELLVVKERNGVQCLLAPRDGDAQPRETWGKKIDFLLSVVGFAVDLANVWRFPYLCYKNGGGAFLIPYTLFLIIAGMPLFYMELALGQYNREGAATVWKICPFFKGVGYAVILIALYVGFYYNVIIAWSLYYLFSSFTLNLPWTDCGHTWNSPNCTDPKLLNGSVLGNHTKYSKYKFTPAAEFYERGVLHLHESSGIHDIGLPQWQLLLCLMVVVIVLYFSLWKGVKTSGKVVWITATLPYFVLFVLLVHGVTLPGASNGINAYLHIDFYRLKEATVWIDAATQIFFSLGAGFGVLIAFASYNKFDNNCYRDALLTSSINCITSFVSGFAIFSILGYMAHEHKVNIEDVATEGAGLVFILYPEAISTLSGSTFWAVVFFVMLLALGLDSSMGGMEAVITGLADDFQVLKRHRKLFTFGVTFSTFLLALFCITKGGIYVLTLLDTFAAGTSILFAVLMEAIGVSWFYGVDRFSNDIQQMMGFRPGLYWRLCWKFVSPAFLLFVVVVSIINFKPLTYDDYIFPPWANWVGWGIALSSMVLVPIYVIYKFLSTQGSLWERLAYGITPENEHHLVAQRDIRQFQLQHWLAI
# Sequence of Sodium-dependent serotonin transporter (Homo sapiens, UniProt P31645) (P31645 whole entry): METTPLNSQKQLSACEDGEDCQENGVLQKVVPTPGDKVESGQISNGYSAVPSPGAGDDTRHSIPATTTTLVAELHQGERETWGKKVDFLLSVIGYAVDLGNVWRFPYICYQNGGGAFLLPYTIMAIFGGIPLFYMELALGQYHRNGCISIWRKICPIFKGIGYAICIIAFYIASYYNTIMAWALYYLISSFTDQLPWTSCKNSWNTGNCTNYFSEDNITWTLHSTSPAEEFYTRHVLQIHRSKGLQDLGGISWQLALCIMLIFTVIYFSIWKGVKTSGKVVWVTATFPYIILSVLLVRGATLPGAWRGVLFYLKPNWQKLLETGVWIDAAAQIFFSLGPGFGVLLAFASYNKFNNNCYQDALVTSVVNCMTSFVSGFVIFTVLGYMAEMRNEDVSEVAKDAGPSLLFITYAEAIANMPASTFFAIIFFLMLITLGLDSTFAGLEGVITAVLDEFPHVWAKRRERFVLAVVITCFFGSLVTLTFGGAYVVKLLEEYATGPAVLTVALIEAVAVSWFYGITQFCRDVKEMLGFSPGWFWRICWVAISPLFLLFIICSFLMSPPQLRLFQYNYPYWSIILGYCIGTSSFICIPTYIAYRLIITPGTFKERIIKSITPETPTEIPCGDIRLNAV
structure (smiles),measurement,setting,value
CCN(CC)C(=O)C1(c2ccccc2)CC1CN (stereo not drawn),pKa,physchem,9.5
same,logD,[1],0.2
same,bioavailability,[2],85%
same,dose excreted,[3],> 80%
same,IC50,Transporter [4],100 nM
same,IC50,[5],203 nM
same,IC50,[6],47 nM
same,logP,[7],1.7
same,CLhep predicted at 1 µM,[8],3.1 mL/min/kg
same,CLhep predicted at 1 µM,[9],24 mL/min/kg
same,IC50,[10],37000 nM
CNCC[C@@H](Oc1ccccc1C)c1ccccc1 [ATOMOXETINE],Cmax,[11],170 ng/mL
same,half-life,[12],2.8 h
same,AUC,Rattus norvegicus [13],910 ng·h/mL
same,Papp A→B,in vitro,43.7 ×10⁻⁶ cm/s
same,Tmax,[14],2 h
same,F,Rattus norvegicus [15],1.5%
C=C(F)CN(CC)C(=O)[C@@]1(c2cccs2)C[C@H]1CN,IC50,[16],> 10000 nM
same,half-life,[17],0.9 h
same,pKa,physchem,9.4
same,logD,[1],0.2
same,AUC,[18],1500 ng·h/mL
same,IC50,[19],> 10000 nM
same,Activity,Rattus norvegicus [20],56%
same,IC50,[21],97 nM
same,Tmax,[22],0.4 h
same,IC50,[6],160 nM
same,Vd,[23],5.5 L/kg
same,bioavailability,[24],47%
same,Vd,[25],7.5 L/kg
same,Papp A→B,in vitro,16.7 ×10⁻⁶ cm/s
same,clearance,[26],140 mL/min/kg
same,logP,[7],1.8
same,Cmax,[27],974 ng/mL
same,CLhep predicted at 1 µM,[8],2.6 mL/min/kg
same,CL renal,[28],59 mL/min/kg
same,dose excreted,[29],30%
same,Kp at 1 h,[30],0.73
same,CLhep predicted at 1 µM,[9],54 mL/min/kg
same,concentration at 4 h,[31],31 ng/g
same,IC50,[32],4.4 nM
same,concentration at 1 h,[33],70 ng/g
same,half-life,[34],0.6 h
same,IC50,[10],> 10000 nM
same,IC50,Cytochrome P450 2D6,6000 nM
same,AUC,[35],532 ng·h/mL
same,MRT,[36],0.7 h
same,Kp at 4 h,[37],1.1
same,IC50,Transporter [38],21 nM
same,CL/F,[39],334 mL/min/kg
C=CCN(CC=C)C(=O)[C@@]1(c2cccs2)C[C@H]1CN,Activity,Rattus norvegicus [40],60%
same,half-life,[17],1.2 h
same,pKa,physchem,9.4
same,logD,[1],0.3
same,AUC,[18],1130 ng·h/mL
same,IC50,[19],> 10000 nM
same,Activity,Rattus norvegicus [20],56%
same,IC50,[21],32 nM
same,Tmax,[22],0.5 h
same,IC50,[6],11 nM
same,Vd,[23],4.4 L/kg
same,bioavailability,[24],12%
same,Vd,[25],5.3 L/kg
same,Papp A→B,in vitro,16.7 ×10⁻⁶ cm/s
same,clearance,[26],102 mL/min/kg
same,logP,[7],2
same,Cmax,[27],522 ng/mL
same,CLhep predicted at 1 µM,[8],9.9 mL/min/kg
same,CL renal,[28],11 mL/min/kg
same,Kp at 1 h,[30],0.6
same,CLhep predicted at 1 µM,[9],61 mL/min/kg
same,concentration at 4 h,[31],26 ng/g
same,IC50,[32],2.3 nM
same,concentration at 1 h,[33],127 ng/g
same,half-life,[34],0.6 h
same,IC50,[10],19000 nM
same,IC50,Cytochrome P450 2D6,6000 nM
same,AUC,[35],721 ng·h/mL
same,MRT,[36],0.7 h
same,Kp at 4 h,[37],1.4
same,IC50,Transporter [38],4.6 nM
same,CL/F,[39],444 mL/min/kg
C=C(F)CN(CC)C(=O)[C@@]1(c2cccs2)C[C@H]1CN.Cl,clearance,[41],34 mL/min/kg
same,Tmax,[42],1.2 h
same,AUC,[43],47500 ng·h/mL
same,Cmax,[44],2440 ng/mL
same,clearance,[45],10.8 mL/min/kg
same,CL renal,[46],2.2 mL/min/kg
same,bioavailability,[47],109%
same,CL renal,[48],6 mL/min/kg
same,Cmax,[49],5570 ng/mL
same,Vd,[50],4.4 L/kg
same,Vd,[51],2.4 L/kg
same,half-life,[52],3.5 h
same,bioavailability,[53],70%
same,AUC,[54],9050 ng·h/mL
same,half-life,[55],4.3 h
same,Tmax,[56],2.3 h
